Data: US9000186B2, “Ring-fused heterocyclic derivative” (Kyowa Hakko Kirin Co., Ltd., priority 2011, dated 2015)
Where two headings read alike, the source gives them in different places.

What was measured:
[1] = biological target: T1, human Cav3.2 T-type Ca2+ channel (Homo sapiens, UniProt O95180); assay: Inhibitory effect for intracellular calcium response via Cav3.2 T-type Ca2+ channels (FLIPR Calcium 3 Assay Kit); assay type: cell-based
T1 construct: expressed in transfected cells; host or cells: KJMGER8 cells (Namalwa cell-derived cell line)
T1 sequence (O95180 whole entry): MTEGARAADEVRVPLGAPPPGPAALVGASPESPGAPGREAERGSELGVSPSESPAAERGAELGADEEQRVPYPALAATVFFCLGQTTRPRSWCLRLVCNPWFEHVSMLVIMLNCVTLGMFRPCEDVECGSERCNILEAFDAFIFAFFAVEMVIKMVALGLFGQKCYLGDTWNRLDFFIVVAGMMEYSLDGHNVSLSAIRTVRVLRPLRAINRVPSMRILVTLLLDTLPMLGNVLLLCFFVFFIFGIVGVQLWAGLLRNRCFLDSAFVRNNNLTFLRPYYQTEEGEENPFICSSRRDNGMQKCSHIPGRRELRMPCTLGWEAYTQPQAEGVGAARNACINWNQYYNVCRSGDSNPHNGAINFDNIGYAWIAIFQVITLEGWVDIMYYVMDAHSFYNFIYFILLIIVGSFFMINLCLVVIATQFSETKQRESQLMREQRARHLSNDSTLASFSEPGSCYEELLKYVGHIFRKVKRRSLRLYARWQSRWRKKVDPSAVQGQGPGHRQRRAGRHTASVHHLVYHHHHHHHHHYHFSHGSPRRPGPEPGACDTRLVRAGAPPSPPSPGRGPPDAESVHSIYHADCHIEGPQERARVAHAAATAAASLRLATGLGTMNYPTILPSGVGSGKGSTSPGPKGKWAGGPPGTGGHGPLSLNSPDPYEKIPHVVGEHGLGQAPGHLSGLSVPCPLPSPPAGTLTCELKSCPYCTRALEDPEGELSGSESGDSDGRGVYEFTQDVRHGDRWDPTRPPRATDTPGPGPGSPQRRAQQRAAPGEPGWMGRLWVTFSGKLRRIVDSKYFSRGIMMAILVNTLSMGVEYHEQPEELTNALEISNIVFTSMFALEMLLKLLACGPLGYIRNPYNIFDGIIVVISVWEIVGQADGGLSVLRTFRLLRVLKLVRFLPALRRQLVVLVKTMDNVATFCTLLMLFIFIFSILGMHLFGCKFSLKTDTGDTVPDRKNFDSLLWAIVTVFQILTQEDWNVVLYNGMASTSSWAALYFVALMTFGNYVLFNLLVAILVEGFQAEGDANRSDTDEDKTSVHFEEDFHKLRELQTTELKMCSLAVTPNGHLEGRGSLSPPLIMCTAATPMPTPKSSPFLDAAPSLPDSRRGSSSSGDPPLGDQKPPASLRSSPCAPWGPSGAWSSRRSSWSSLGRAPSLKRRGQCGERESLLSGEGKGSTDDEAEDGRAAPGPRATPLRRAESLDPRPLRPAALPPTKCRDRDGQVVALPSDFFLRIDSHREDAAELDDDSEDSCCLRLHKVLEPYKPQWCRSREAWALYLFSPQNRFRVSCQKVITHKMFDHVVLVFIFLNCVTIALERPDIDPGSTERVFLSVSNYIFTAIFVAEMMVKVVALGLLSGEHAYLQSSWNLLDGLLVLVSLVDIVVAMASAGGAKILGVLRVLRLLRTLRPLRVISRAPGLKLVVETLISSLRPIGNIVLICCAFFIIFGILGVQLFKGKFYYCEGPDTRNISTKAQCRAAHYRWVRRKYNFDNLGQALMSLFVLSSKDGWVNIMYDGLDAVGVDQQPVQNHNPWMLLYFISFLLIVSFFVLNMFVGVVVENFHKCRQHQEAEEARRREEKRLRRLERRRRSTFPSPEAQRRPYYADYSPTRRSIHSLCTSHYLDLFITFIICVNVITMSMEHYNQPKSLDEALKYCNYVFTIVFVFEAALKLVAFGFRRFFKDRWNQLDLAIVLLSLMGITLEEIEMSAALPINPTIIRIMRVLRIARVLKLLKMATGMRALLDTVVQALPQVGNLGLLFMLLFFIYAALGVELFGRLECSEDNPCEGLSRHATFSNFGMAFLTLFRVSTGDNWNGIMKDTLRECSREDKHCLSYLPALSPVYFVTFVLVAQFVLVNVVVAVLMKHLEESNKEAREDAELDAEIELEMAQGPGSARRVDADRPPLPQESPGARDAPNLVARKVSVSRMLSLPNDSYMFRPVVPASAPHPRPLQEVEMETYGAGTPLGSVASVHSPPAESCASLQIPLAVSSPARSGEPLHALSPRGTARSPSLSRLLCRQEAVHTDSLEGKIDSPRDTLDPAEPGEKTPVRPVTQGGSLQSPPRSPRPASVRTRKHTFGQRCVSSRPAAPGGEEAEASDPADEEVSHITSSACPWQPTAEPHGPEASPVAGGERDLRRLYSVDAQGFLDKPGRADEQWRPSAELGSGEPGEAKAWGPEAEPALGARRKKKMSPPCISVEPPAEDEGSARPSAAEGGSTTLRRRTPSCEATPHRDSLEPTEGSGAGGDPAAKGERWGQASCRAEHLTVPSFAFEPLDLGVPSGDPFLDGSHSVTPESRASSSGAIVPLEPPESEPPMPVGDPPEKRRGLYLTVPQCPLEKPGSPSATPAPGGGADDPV

[2] = tested on: morphine-induced pruritus mice; assay: Inhibitory effect for pruritus in morphine-induced pruritus mice; assay type: in vivo, male ddY mice; conditions: oral, dose of 30 mg/kg or less, 30 minutes before intrathecal morphine (1 nmol/5 μL); scratching counted for 30 minutes
Protocol: Morphine (1 nmol/5 μL, dissolved in physiological saline) or physiological saline was intrathecally administered between the fifth and sixth lumbar vertebrae of male ddY mice using a microsyringe fitted with a 30-gauge injection needle. Mice administered with only morphine were used as a control group, and mice administered with only physiological saline as a physiological saline-administered group.
After the morphine administration, the number of scratching behavior with the hind legs which observed immediately in the mice was measured for 30 minutes. Because mice show a rapid, continuous scratching behavior in each scratching behavior, a series of such behavior was counted as a single scratching behavior.
The test compounds were administered 30 minutes before the morphine administration. Each test compound was suspended in a 0.5% methylcellulose solution, and orally administered in 10 mL/kg volume.

[3] = human Cav3.2-expressing KJMGER8 cells (Namalwa-derived), calcium response induced by 5 mmol/L CaCl2, normalised to 3 μmol/L mibefradil, read-out: IC50 for the human Cav3.2 T-type Ca2+ current

| Structure (SMILES) | IC50 [1] [nM] | increase of the scratching behavior observed in the morphine-induced pruritus mice [2] | IC50 [1, 3] [nM] |
| --- | --- | --- | --- |
| COC(C)(C)CNC(=O)c1cc(C)n2c(CC3CCC(F)(F)CC3)c(C(F)(F)F)nc2c1 [Compound 79, 3-(4,4-Difluorocyclohexylmethyl)-N-(2-methoxy-2-methylpropyl)-5-methyl-2-trifluoromethylimidazo[1,2-a]pyridine-7-carboxamide] | < 100 | inhibited | – |
| CC(C)(C)c1nc2cc(C(=O)NC3CCOCC3)c(Cl)cn2c1CC1CCC(F)(F)CC1 [Compound 113, 2-tert-Butyl-6-chloro-3-(4,4-difluorocyclohexylmethyl)-N-(tetrahydro-2H-pyran-4-yl)imidazo[1,2-a]pyridine-7-carboxamide] | < 100 | inhibited | – |
| CC(C)c1nc2cc(C(=O)Nc3ccccc3)ccn2c1S(=O)(=O)N1CC(F)(F)C1 [Compound 133, 3-(3,3-Difluoroazetidin-1-ylsulfonyl)-2-isopropyl-N-phenylimidazo[1,2-a]pyridine-7-carboxamide] | – | inhibited | < 100 |
| Cc1cc(C(=O)NC2CCOC2)cc2nc(C(F)(F)F)c(CC3CCC(F)(F)CC3)n12 (stereo not shown) [Compound 73, 3-(4,4-Difluorocyclohexylmethyl)-5-methyl-N-(tetrahydrofuran-3-yl)-2-trifluoromethylimidazo[1,2-a]pyridine-7-carboxamide] | < 100 | inhibited | – |
| CC(C)(C)c1nc2cc(C(=O)NC3CCC3)ccn2c1CC1CCCCC1 [Compound 15, 2-tert-Butyl-N-cyclobutyl-3-cyclohexylmethylimidazo[1,2-a]pyridine-7-carboxamide] | < 100 | inhibited | – |
| CC(C)c1nc2cc(C(=O)Nc3ccncc3)ccn2c1COC1CCCCC1 [Compound 24, 3-Cyclohexyloxymethyl-2-isopropyl-N-(pyridin-4-yl)imidazo[1,2-a]pyridine-7-carboxamide] | – | inhibited | < 100 |
| Cc1cc(C(=O)NC2CCOCC2)cc2nc(C3(C)CC3)c(CC3CCC(F)(F)CC3)n12 [Compound 100, 3-(4,4-Difluorocyclohexylmethyl)-5-methyl-2-(1-methylcyclopropyl)-N-(tetrahydro-2H-pyran-4-yl)imidazo[1,2-a]pyridine-7-carboxamide] | < 100 | inhibited | – |
| Cc1cn2c(COC3CCCCC3)c(C(C)C)nc2cc1C(=O)Nc1ccncc1 [Compound 43, 3-Cyclohexyloxymethyl-2-isopropyl-6-methyl-N-(pyridin-4-yl)imidazo[1,2-a]pyridine-7-carboxamide] | < 100 | inhibited | – |
| CC(C)c1nc2cc(C(=O)NC3CCOCC3)c(Cl)cn2c1CC1CCC(F)(F)CC1 [Compound 111, 6-Chloro-3-(4,4-difluorocyclohexylmethyl)-2-isopropyl-N-(tetrahydro-2H-pyran-4-yl)imidazo[1,2-a]pyridine-7-carboxamide] | < 100 | inhibited | – |
| O=C(Nc1ccn2c(CC3CCC(F)(F)CC3)c(C(F)(F)F)nc2c1)c1ccccc1 [Compound 126, N-{3-(4,4-Difluorocyclohexylmethyl)-2-trifluoromethylimidazo[1,2-a]pyridin-7-yl}benzamide] | < 100 | inhibited | – |
| O=C(NC1CCOCC1)c1cc2nc(C(F)(F)F)c(CC3CCC(F)(F)CC3)n2cc1Cl [Compound 108, 6-Chloro-3-(4,4-difluorocyclohexylmethyl)-N-(tetrahydro-2H-pyran-4-yl)-2-trifluoromethylimidazo[1,2-a]pyridine-7-carboxamide] | < 100 | inhibited | – |
| CC(F)(F)c1nc2cc(C(=O)NC3CCOCC3)c(Cl)cn2c1CC1CCC(F)(F)CC1 [Compound 109, 6-Chloro-3-(4,4-difluorocyclohexylmethyl)-2-(1,1-difluoroethyl)-N-(tetrahydro-2H-pyran-4-yl)imidazo[1,2-a]pyridine-7-carboxamide] | < 100 | inhibited | – |
| Cc1cc(NC(=O)c2cc3nc(C(C)C)c(S(=O)(=O)N4CC(F)(F)C4)n3cc2Cl)on1 [Compound 148, 6-Chloro-3-(3,3-difluoroazetidin-1-ylsulfonyl)-2-isopropyl-N-(3-methylisooxazol-5-yl)imidazo[1,2-a]pyridine-7-carboxamide] | – | inhibited | < 100 |
| O=C(NC1CCOCC1)c1cc(Cl)n2c(CC3CCC(F)(F)CC3)c(C(F)(F)F)nc2c1 [Compound 104, 5-Chloro-3-(4,4-difluorocyclohexylmethyl)-N-(tetrahydro-2H-pyran-4-yl)-2-trifluoromethylimidazo[1,2-a]pyridine-7-carboxamide] | < 100 | inhibited | – |
| Cc1cc(C(=O)NC2CCOCC2)cc2nc(C(C)C)c(CC3CCC(F)(F)CC3)n12 [Compound 101, 3-(4,4-Difluorocyclohexylmethyl)-2-isopropyl-5-methyl-N-(tetrahydro-2H-pyran-4-yl)imidazo[1,2-a]pyridine-7-carboxamide] | < 100 | inhibited | – |
| Cc1cc(C(=O)NCC2CCOCC2)cc2nc(C(F)(F)F)c(CC3CCC(F)(F)CC3)n12 [Compound 81, 3-(4,4-Difluorocyclohexylmethyl)-5-methyl-N-{(tetrahydro-2H-pyran-4-yl)methyl}-2-trifluoromethylimidazo[1,2-a]pyridine-7-carboxamide] | < 100 | inhibited | – |
| Cc1cc(C(=O)NC2CCOCC2)cc2nc(C(C)(F)F)c(CC3CCC(F)(F)CC3)n12 [Compound 96, 3-(4,4-Difluorocyclohexylmethyl)-2-(1,1-difluoroethyl)-5-methyl-N-(tetrahydro-2H-pyran-4-yl)imidazo[1,2-a]pyridine-7-carboxamide] | < 100 | inhibited | – |
| CC1CCCN(C(=O)c2ccn3c(CC4CCCCC4)c(C(C)(C)C)nc3c2)C1 (stereo not shown) [Compound 14, (2-tert-Butyl-3-cyclohexylmethylimidazo[1,2-a]pyridin-7-yl)(3-methylpiperidin-1-yl)methanone] | < 100 | inhibited | – |
| CC(C)(O)CNC(=O)c1cc(Cl)n2c(CC3CCC(F)(F)CC3)c(C(F)(F)F)nc2c1 [Compound 182, 5-Chloro-3-(4,4-difluorocyclohexylmethyl)-N-(2-hydroxy-2-methylpropyl)-2-trifluoromethylimidazo[1,2-a]pyridine-7-carboxamide] | < 100 | inhibited | – |
| Cc1cc(C(=O)NCC2CCOC2)cc2nc(C(F)(F)F)c(CC3CCC(F)(F)CC3)n12 (stereo not shown) [Compound 80, 3-(4,4-Difluorocyclohexylmethyl)-N-{(tetrahydrofuran-3-yl)methyl}-5-methyl-2-trifluoromethylimidazo[1,2-a]pyridine-7-carboxamide] | < 100 | inhibited | – |
